Experimental data published in ChEMBL document CHEMBL3751764, “Synthesis and in vitro antiproliferative activity of novel pyrazolo[3,4-d]pyrimidine derivatives” (Medchemcomm, 2015).

Key:
Type in all cases: functional
NCI-H322M = assay: Cytotoxicity against human NCI-H322M cells assessed as cell growth at 10 uM after 72 hrs by SRB assay relative to control; settings: read-out: Activity
A549 = assay: Cytotoxicity against human A549 cells assessed as cell growth at 10 uM after 72 hrs by SRB assay relative to control; settings: A549, 72 h, read-out: Activity
MDA-MB-468 = assay: Cytotoxicity against human MDA-MB-468 cells assessed as cell growth at 10 uM after 72 hrs by SRB assay relative to control; settings: MDA-MB-468, 72 h, read-out: Activity
NCI-H226 = assay: Cytotoxicity against human NCI-H226 cells assessed as cell growth at 10 uM after 72 hrs by SRB assay relative to control; settings: NCI-H226, 72 h, read-out: Activity
[1] = Cytotoxicity against human HOP92 cells assessed as cell growth at 10 uM after 72 hrs by SRB assay relative to control; settings: HOP-92, 72 h, read-out: Activity
CCRF-CEM = assay: Cytotoxicity against human CCRF-CEM cells assessed as cell growth at 10 uM after 72 hrs by SRB assay relative to control; settings: read-out: Activity
ACHN = assay: Cytotoxicity against human ACHN cells assessed as cell growth at 10 uM after 72 hrs by SRB assay relative to control; settings: read-out: Activity
U-251 = assay: Cytotoxicity against human U251 cells assessed as cell growth at 10 uM after 72 hrs by SRB assay relative to control; settings: U-251, 72 h, read-out: Activity
[2] = Cytotoxicity against human HCT15 cells assessed as cell growth at 10 uM after 72 hrs by SRB assay relative to control; settings: HCT-15, 72 h, read-out: Activity
[3] = Cytotoxicity against human UO31 cells assessed as cell growth at 10 uM after 72 hrs by SRB assay relative to control; settings: UO-31, 72 h, read-out: Activity
[4] = Cytotoxicity against human SNB19 cells assessed as cell growth at 10 uM after 72 hrs by SRB assay relative to control; settings: SNB-19, 72 h, read-out: Activity
KM12 = assay: Cytotoxicity against human KM12 cells assessed as cell growth at 10 uM after 72 hrs by SRB assay relative to control; settings: KM12, 72 h, read-out: Activity
K562 = assay: Cytotoxicity against human K562 cells assessed as cell growth at 10 uM after 72 hrs by SRB assay relative to control; settings: K562, 72 h, read-out: Activity
Malme-3M = assay: Cytotoxicity against human MALME-3M cells assessed as cell growth at 10 uM after 72 hrs by SRB assay relative to control; settings: read-out: Activity
[5] = Cytotoxicity against human SKOV3 cells assessed as cell growth at 10 uM after 72 hrs by SRB assay relative to control; settings: SK-OV-3, 72 h, read-out: Activity
SK-MEL-5 = assay: Cytotoxicity against human SK-MEL-5 cells assessed as cell growth at 10 uM after 72 hrs by SRB assay relative to control; settings: SK-MEL-5, 72 h, read-out: Activity
[6] = Cytotoxicity against human Hs 578T cells assessed as cell growth at 10 uM after 72 hrs by SRB assay relative to control; settings: read-out: Activity
[7] = Cytotoxicity against human SF295 cells assessed as cell growth at 10 uM after 72 hrs by SRB assay relative to control; settings: SF-295, 72 h, read-out: Activity
[8] = Cytotoxicity against human NCI-ADR-RES cells assessed as cell growth at 10 uM after 72 hrs by SRB assay relative to control; settings: read-out: Activity
[9] = Cytotoxicity against human MOLT4 cells assessed as cell growth at 10 uM after 72 hrs by SRB assay relative to control; settings: MOLT-4, 72 h, read-out: Activity
[10] = Cytotoxicity against human Caki1 cells assessed as cell growth at 10 uM after 72 hrs by SRB assay relative to control; settings: CAKI-1, 72 h, read-out: Activity
A498 = assay: Cytotoxicity against human A498 cells assessed as cell growth at 10 uM after 72 hrs by SRB assay relative to control; settings: A498, 72 h, read-out: Activity

Row | Compound | growth at 10 µM (NCI-H322M) | growth at 10 µM (A549) | growth at 10 µM (MDA-MB-468) | growth at 10 µM (NCI-H226) | growth at 10 µM [1] | growth at 10 µM (CCRF-CEM) | growth at 10 µM (ACHN) | growth at 10 µM (U-251) | growth at 10 µM [2] | growth at 10 µM [3] | growth at 10 µM (KM12) | growth at 10 µM (K562) | growth at 10 µM (Malme-3M) | growth at 10 µM [5] | growth at 10 µM (SK-MEL-5) | growth at 10 µM [6] | growth at 10 µM [7] | growth at 10 µM [8] | growth at 10 µM [9] | growth at 10 µM [10] | other results
1 | Cc1ccc2nc(Nc3ncnc4c3cnn4-c3ccccc3)sc2c1 | 45.7% | 102% | 80.3% | 101% | 97.5% | 87.9% | 107% | 103% | 97.8% | 91.7% | 98.9% | 102% | 87% | 112% | 92.1% | 120% | 99.8% | 106% | 102% | 103% | growth at 10 µM [4]: 98.2%; growth at 10 µM (A498): 66.4%
2 | Clc1ccc(-n2ncc3c(Nc4ccc(OCc5ccccc5)cc4)ncnc32)cc1 | 75% | 88.8% | 91.5% | 102% | 97.8% | 78.9% | 98.6% | 95% | 87.2% | 83.6% | 80.2% | 87.3% | 85.1% | 99.7% | 94.4% | 96.6% | 97.8% | 94.5% | 89.6% | 93.7% | growth at 10 µM (A498): 85.2%
3 | c1ccc(COc2ccc(Nc3ncnc4c3cnn4-c3ccccc3)cc2)cc1 | 84.1% | 104% | 93.1% | 103% | 98.8% | 80.8% | 104% | 106% | 72.4% | 79.6% | 98.2% | 90.3% | 92.8% | 108% | 94.3% | 109% | 107% | 107% | 93.1% | 99.1% | growth at 10 µM [4]: 96%; growth at 10 µM (A498): 77.9%
